Literature values, collected in US20210346403A1, “USE OF COMPOUNDS THAT TARGET MINERALOCORTICOID RECEPTORS FOR TREATING COVID-19” (priority 2020, published 2021).

Assays:
[1] = biological target: T1, mineralocorticoid receptor (MR) (Homo sapiens, UniProt P08235); conditions: versus other steroid receptors, in words
T1 sequence (P08235 1-984): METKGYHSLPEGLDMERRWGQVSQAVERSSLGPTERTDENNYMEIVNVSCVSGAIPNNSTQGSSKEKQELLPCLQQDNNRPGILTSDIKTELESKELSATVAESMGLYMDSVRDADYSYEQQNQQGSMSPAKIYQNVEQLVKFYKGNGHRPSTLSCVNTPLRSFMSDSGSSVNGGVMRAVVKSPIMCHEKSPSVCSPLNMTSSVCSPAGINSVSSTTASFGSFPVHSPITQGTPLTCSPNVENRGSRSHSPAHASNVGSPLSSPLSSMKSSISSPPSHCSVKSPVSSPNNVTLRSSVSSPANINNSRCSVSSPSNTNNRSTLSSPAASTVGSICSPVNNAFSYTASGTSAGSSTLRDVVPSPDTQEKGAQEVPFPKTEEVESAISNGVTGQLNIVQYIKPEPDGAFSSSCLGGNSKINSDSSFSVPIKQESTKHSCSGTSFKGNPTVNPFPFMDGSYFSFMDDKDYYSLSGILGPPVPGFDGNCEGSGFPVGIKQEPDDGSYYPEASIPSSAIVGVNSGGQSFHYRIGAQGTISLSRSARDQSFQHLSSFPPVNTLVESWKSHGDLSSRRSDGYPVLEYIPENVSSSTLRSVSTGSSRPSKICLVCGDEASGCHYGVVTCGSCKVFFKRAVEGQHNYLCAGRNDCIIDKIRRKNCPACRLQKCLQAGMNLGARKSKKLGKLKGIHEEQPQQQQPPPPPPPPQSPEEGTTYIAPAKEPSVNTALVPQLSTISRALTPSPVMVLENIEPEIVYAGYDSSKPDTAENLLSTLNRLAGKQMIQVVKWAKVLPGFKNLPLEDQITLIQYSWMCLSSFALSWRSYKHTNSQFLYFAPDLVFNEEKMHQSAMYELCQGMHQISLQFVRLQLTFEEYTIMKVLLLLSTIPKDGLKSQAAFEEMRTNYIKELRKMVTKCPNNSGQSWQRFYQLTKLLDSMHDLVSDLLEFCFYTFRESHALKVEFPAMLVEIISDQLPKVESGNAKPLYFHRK

progestin receptor = biological target: T2, progestin receptor (Homo sapiens, UniProt P06401); conditions: fold lower affinity; comparator not stated explicitly (spironolactone or MR implied)
T2 sequence (P06401 1-933): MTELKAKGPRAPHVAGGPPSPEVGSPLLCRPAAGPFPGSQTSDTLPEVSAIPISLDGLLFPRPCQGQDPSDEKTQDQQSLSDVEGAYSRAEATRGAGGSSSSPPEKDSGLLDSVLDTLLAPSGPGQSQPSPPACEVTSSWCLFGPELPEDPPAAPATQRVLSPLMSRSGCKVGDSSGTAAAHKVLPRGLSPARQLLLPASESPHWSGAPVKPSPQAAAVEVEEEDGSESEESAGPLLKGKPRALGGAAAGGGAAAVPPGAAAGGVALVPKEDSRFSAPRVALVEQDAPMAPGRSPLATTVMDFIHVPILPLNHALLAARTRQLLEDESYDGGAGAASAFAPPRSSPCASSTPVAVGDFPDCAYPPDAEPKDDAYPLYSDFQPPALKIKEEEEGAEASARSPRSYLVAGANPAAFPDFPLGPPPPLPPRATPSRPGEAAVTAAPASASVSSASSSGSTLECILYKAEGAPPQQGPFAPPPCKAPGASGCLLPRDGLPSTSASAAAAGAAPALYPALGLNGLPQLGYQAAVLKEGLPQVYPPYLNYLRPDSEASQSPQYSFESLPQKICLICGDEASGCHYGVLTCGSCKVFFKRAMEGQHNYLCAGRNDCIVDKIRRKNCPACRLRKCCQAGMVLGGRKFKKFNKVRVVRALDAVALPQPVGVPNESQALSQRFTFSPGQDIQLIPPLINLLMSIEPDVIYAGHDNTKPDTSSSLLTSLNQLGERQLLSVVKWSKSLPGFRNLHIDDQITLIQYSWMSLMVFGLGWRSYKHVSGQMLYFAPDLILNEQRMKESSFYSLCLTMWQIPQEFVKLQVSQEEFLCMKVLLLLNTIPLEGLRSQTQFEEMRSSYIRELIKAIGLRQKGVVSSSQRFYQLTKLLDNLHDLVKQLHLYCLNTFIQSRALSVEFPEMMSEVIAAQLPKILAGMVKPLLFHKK

[2] = degraded by aminopeptidase A enzymes on red blood cells

Compound: CC(=O)S[C@@H]1CC2=CC(=O)CC[C@]2(C)[C@H]2CC[C@@]3(C)[C@@H](CC[C@@]34CCC(=O)O4)[C@H]12 [Spironolactone, spironolactone]
- selectivity for the MR [1]: less selective for the MR

Compound: COC(=O)[C@@H]1CC2=CC(=O)CC[C@]2(C)[C@@]23O[C@@H]2C[C@@]2(C)[C@@H](CC[C@@]24CCC(=O)O4)[C@H]13 [Eplerenone, eplerenone]
- lower affinity for the progestin receptor (progestin receptor): 500 fold

Compound: angiotensin-2 (DRVYIHPF; Angiotensin-2; UniProt P01019 25-32, looked up) [AngII]
- half-life [2]: 30 s
